Data taken from patent US20250101044A1, “METAL-ORGANIC FRAMEWORK COMPOSITE AND PREPARATION METHOD AND USE THEREOF” (priority 2021, published 2025).
≈ marks a conversion by molar mass, not a printed value.

System: S. aureus
Assay: MIC and MBC antibacterial test
Type: cell-based
Details: Staphylococcus aureus

O=C(O)/C=C/c1ccc(O)c(O)c1 [CA, caffeic acid]
MBC: 4 µg/mL (≈ 22.2 µM)
MIC: 4 µg/mL (≈ 22.2 µM)
